Laboratory results as given in PMC11435093, “Synthesis and Evaluation of ^99mTc(CO)3 Complexes with Ciprofloxacin Dithiocarbamate for Infection Imaging” (Pharmaceutics, 2024).

Key:
[1] = Lipophilicity: partition between n-octanol and PBS pH 7.4; type: physicochemical; conditions: n-octanol/PBS pH 7.4, M: 99mTc, three determinations
Protocol: The lipophilicity of HPLC purified technetium-99m complexes 1′–6′ was determined by measuring the partition coefficient (logD7.4) between n-octanol and phosphate-buffered saline (PBS, pH 7.4) based on established literature methods and is briefly described here. An aliquot of each technetium-99m complex was added to a mixture of equal volumes (2.0 mL each) of n-octanol and PBS (pH 7.4) in a 5 mL centrifuge tube. The mixture was vigorously vortexed for 2 min and then centrifuged at 5000 rpm for 5 min to ensure complete phase separation. After centrifugation, 0.1 mL aliquots from both the n-octanol and PBS phases were sampled and their radioactivity was measured using a gamma counter. The log P was calculated using the following equation: […]. The procedure was repeated three times for each complex to ensure reproducibility.

[2] = system: Swiss Albino mice with induced infection (Staphylococcus aureus) and aseptic inflammation (turpentine); assay: Biodistribution in mice with induced infection and aseptic inflammation; type: in vivo; conditions: for Urine radioactivity: per sample; for blood clearance / blood radioactivity course: within 120 min
Protocol: The in vivo behavior of HPLC purified technetium-99m complexes 1′–6′ was evaluated through biodistribution studies in Swiss Albino mice (40 ± 5 g) with induced infection and aseptic inflammation. The experiment was conducted in accordance with the guidelines for the protection of animals used for scientific purposes. Mice were divided into groups and prepared for biodistribution studies by inducing infection and aseptic inflammation. Twenty-four hours prior to the injection of the technetium complexes, the left thigh muscle of each mouse was inoculated with 50 µL of a Staphylococcus aureus suspension (1 × 10^6 CFU/mL) to induce infection. Aseptic inflammation was induced in the right thigh muscle by injecting 50 µL of turpentine oil. The technetium-99m complexes were administered intravenously via the tail vein. Each mouse received an injection of 0.037 MBq of the respective technetium-99m complex. The biodistribution was studied at two different time points, 15 min and 120 min post-injection. At each time point, the mice were sacrificed under anesthesia. Blood samples were obtained by cardiac puncture. The organs of interest were collected after dissection, including the liver, heart, kidneys, stomach, intestines, spleen, muscle (normal, infected, and inflamed), lungs, pancreas, and urinary bladder. The organs were made free from adhering tissues and transferred into pre-weighed counting vials. The radioactivity of the collected samples was measured using a shielded well-type gamma counter. The results were expressed as a percentage of injected dose per gram of tissue (% ID/g). The radioactivity ratios in infected muscle to normal muscle and inflamed muscle to normal muscle were calculated to assess the specificity and selectivity of the technetium complexes for infection and inflammation.

| Compound | LogD7.4 [1] | Aseptic Infl. (turpentine inflamed muscle) radioactivity ([2]; 15 min post i.v. injection) [%ID/g] | Blood radioactivity ([2]; 15 min post i.v. injection) [%ID/g] | Heart radioactivity ([2]; 15 min post i.v. injection) [%ID/g] | Infection (S. aureus infected muscle) radioactivity ([2]; 15 min post i.v. injection) [%ID/g] | Intestines radioactivity ([2]; 15 min post i.v. injection) [%ID/g] | Kidneys radioactivity ([2]; 15 min post i.v. injection) [%ID/g] | Liver radioactivity ([2]; 15 min post i.v. injection) [%ID/g] | Lungs radioactivity ([2]; 15 min post i.v. injection) [%ID/g] | Muscle (normal) radioactivity ([2]; 15 min post i.v. injection) [%ID/g] | Pancreas radioactivity ([2]; 15 min post i.v. injection) [%ID/g] | Spleen radioactivity ([2]; 15 min post i.v. injection) [%ID/g] | Stomach radioactivity ([2]; 15 min post i.v. injection) [%ID/g] | Urine radioactivity ([2]; 15 min post i.v. injection) [%ID] | Intestines radioactivity ([2]; 120 min post i.v. injection) [%ID/g] | Kidneys radioactivity ([2]; 120 min post i.v. injection) [%ID/g] | Liver radioactivity ([2]; 120 min post i.v. injection) [%ID/g] | Lungs radioactivity ([2]; 120 min post i.v. injection) [%ID/g] | Pancreas radioactivity ([2]; 120 min post i.v. injection) [%ID/g] | Spleen radioactivity ([2]; 120 min post i.v. injection) [%ID/g] | further results |
| --- | --- | --- | --- | --- | --- | --- | --- | --- | --- | --- | --- | --- | --- | --- | --- | --- | --- | --- | --- | --- | --- |
| CP(c1ccccc1)c1ccccc1.O=C(O)c1cn(C2CC2)c2cc(N3CCN(C(=S)[S][99Tc])CC3)c(F)cc2c1=O.[C-]#[O+].[C-]#[O+].[C-]#[O+] [complex 4′, fac-[M(CO)3(Cip-DTC)(MePPh2)]] | 1.8 | 0.77 ± 0.12 | 3.20 ± 0.47 | 4.36 ± 0.46 | 0.88 ± 0.15 | 1.27 ± 0.16 | 5.92 ± 0.60 | 42.11 ± 1.70 | 11.15 ± 0.19 | 0.56 ± 0.07 | 1.38 ± 0.21 | 21.59 ± 0.98 | 1.11 ± 0.50 | 0.01 ± 0.00 | 7.97 ± 0.12 | 11.10 ± 0.70 | 31.09 ± 0.72 | 9.41 ± 1.15 | 3.21 ± 0.28 | 8.14 ± 0.93 | Aseptic Infl. (turpentine inflamed muscle) radioactivity ([2]; 120 min post i.v. injection): 1.88 ± 0.26 %ID/g; Blood radioactivity ([2]; 120 min post i.v. injection): 1.48 ± 0.11 %ID/g; Heart radioactivity ([2]; 120 min post i.v. injection): 8.85 ± 0.63 %ID/g; Infection (S. aureus infected muscle) radioactivity ([2]; 120 min post i.v. injection): 2.83 ± 0.30 %ID/g; Stomach radioactivity ([2]; 120 min post i.v. injection): 2.23 ± 0.37 %ID/g; Urine radioactivity ([2]; 120 min post i.v. injection): 0.04 ± 0.03 %ID |
| COc1ccc(P(c2ccc(OC)cc2)c2ccc(OC)cc2)cc1.O=C(O)c1cn(C2CC2)c2cc(N3CCN(C(=S)[S][99Tc])CC3)c(F)cc2c1=O.[C-]#[O+].[C-]#[O+].[C-]#[O+] [complex 3′, fac-[^99mTc(CO)3(Cip-DTC)(TMPP)]] | 2.7 | 0.15 ± 0.07 | 2.54 ± 0.25 | 0.74 ± 0.32 | 0.27 ± 0.11 | 0.36 ± 0.25 | 1.40 ± 0.57 | 47.48 ± 1.30 | 9.58 ± 0.86 |  | 0.29 ± 0.13 | 33.88 ± 2.81 | 0.64 ± 0.61 | 0.00 ± 0.00 | 3.52 ± 0.19 | 5.65 ± 0.78 | 27.58 ± 0.66 | 8.67 ± 0.72 | 0.93 ± 0.20 | 23.10 ± 1.74 | Aseptic Infl. (turpentine inflamed muscle) radioactivity ([2]; 120 min post i.v. injection): 0.52 ± 0.23 %ID/g; Blood radioactivity ([2]; 120 min post i.v. injection): 6.71 ± 0.50 %ID/g; Heart radioactivity ([2]; 120 min post i.v. injection): 3.48 ± 0.23 %ID/g; Infection (S. aureus infected muscle) radioactivity ([2]; 120 min post i.v. injection): 1.14 ± 0.05 %ID/g; Muscle (normal) radioactivity ([2]; 120 min post i.v. injection): 0.34 ± 0.02 %ID/g; Stomach radioactivity ([2]; 120 min post i.v. injection): 1.21 ± 0.32 %ID/g; aseptic inflammation/normal muscle ratio ([2]; 120 min post i.v. injection): 1.51; infected/normal muscle ratio ([2]; 120 min post i.v. injection): 3.32; Urine radioactivity ([2]; 120 min post i.v. injection): 0.01 ± 0.02 %ID; blood clearance / blood radioactivity course [2]: increasing |
| O=C(O)c1cn(C2CC2)c2cc(N3CCN(C(=S)[S][99Tc])CC3)c(F)cc2c1=O.[C-]#[O+].[C-]#[O+].[C-]#[O+].c1ccc(P(c2ccccc2)c2ccccc2)cc1 [complex 2′, fac-[^99mTc(CO)3(Cip-DTC)(PPh3)]] | 2.3 | 1.21 ± 0.07 | 4.51 ± 1.32 | 1.23 ± 0.36 | 2.93 ± 0.09 | 0.14 ± 0.03 | 1.30 ± 0.13 | 32.36 ± 3.58 | 6.66 ± 1.45 | 0.90 ± 0.09 | 0.47 ± 0.20 | 38.44 ± 3.92 | 0.55 ± 0.23 | 3.95 ± 1.30 | 1.08 ± 0.07 | 6.50 ± 0.36 | 27.16 ± 4.02 | 10.20 ± 0.12 | 1.04 ± 0.04 | 37.02 ± 4.43 | aseptic inflammation/normal muscle ratio ([2]; 15 min post i.v. injection): 1.34; infected/normal muscle ratio ([2]; 15 min post i.v. injection): 3.29; Aseptic Infl. (turpentine inflamed muscle) radioactivity ([2]; 120 min post i.v. injection): 0.86 ± 0.10 %ID/g; Blood radioactivity ([2]; 120 min post i.v. injection): 5.19 ± 0.81 %ID/g; Heart radioactivity ([2]; 120 min post i.v. injection): 3.97 ± 0.25 %ID/g; Infection (S. aureus infected muscle) radioactivity ([2]; 120 min post i.v. injection): 3.12 ± 0.14 %ID/g; Muscle (normal) radioactivity ([2]; 120 min post i.v. injection): 0.68 ± 0.05 %ID/g; Stomach radioactivity ([2]; 120 min post i.v. injection): 1.23 ± 0.14 %ID/g; aseptic inflammation/normal muscle ratio ([2]; 120 min post i.v. injection): 1.28; infected/normal muscle ratio ([2]; 120 min post i.v. injection): 4.62; Urine radioactivity ([2]; 120 min post i.v. injection): 4.04 ± 1.23 %ID; blood clearance / blood radioactivity course [2]: relatively stable |
| fac-[M(CO)3(Cip-DTC)(DMPP)] [complex 5′] | 2.0 |  |  |  |  |  |  | 35.51 ± 0.97 | 9.87 ± 0.89 | 0.40 ± 0.06 | 0.83 ± 0.18 | 18.04 ± 0.73 |  |  | 9.98 ± 1.22 | 5.69 ± 1.44 | 31.27 ± 5.71 | 5.37 ± 0.47 | 3.68 ± 0.48 | 7.64 ± 1.22 | Muscle (normal) radioactivity ([2]; 120 min post i.v. injection): 1.34 ± 0.09 %ID/g |
| fac-[M(CO)3(Cip-DTC)(ADAP)] [complex 6′] | 1.6 | 1.10 ± 0.06 | 2.18 ± 0.06 | 4.27 ± 0.42 | 0.94 ± 0.09 | 3.22 ± 0.32 | 8.05 ± 0.22 | 20.95 ± 1.56 | 7.13 ± 0.35 | 1.01 ± 0.12 | 3.70 ± 0.26 | 6.40 ± 0.66 | 0.98 ± 0.29 | 0.37 ± 0.08 | 10.24 ± 1.11 | 4.47 ± 0.52 | 22.98 ± 2.70 | 3.06 ± 0.10 | 2.27 ± 0.37 | 2.55 ± 0.27 | Aseptic Infl. (turpentine inflamed muscle) radioactivity ([2]; 120 min post i.v. injection): 0.66 ± 0.10 %ID/g; Blood radioactivity ([2]; 120 min post i.v. injection): 1.33 ± 0.10 %ID/g; Heart radioactivity ([2]; 120 min post i.v. injection): 1.94 ± 0.31 %ID/g; Infection (S. aureus infected muscle) radioactivity ([2]; 120 min post i.v. injection): 0.69 ± 0.09 %ID/g; Muscle (normal) radioactivity ([2]; 120 min post i.v. injection): 0.69 ± 0.05 %ID/g; Stomach radioactivity ([2]; 120 min post i.v. injection): 3.14 ± 0.69 %ID/g; Urine radioactivity ([2]; 120 min post i.v. injection): 1.49 ± 0.23 %ID |
